Test results: patent US6358885B1, “Substituted phenylheterocyclic herbicides” (Mississippi State University, priority 1992, dated 2002)

How the values were obtained:
[1] = test system: ryegrass; assay: Test C preemergence/postemergence greenhouse plant response rating 0 to 100; assay type: in vivo, Lolium multiflorum; conditions: POSTEMERGENCE; for Plant response rating Ryegrass: 0 to 100 scale
Outline: (§1)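 Compounds in non-phytotoxic solvent went onto sandy loam before emergence (seeded one day earlier) or onto plants at the one-to-four leaf stage. Duck salad was treated via flood water (~2.5 cm, maintained) over silt loam.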

[2] = test system: sugar beet; assay: as above; assay type: in vivo, Beta vulgaris; conditions: POSTEMERGENCE; for Plant response rating, Sugar beet: 0 to 100 scale
Outline: as §1

[3] = test system: wild buckwheat; assay: Test B preemergence/postemergence greenhouse plant response rating 0 to 10; assay type: in vivo, Polygonum convolvulus; conditions: 0 to 10 scale
Outline: (§2)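 Planted seeds are treated preemergence with compound dissolved in a non-phytotoxic solvent, while postemergence applications go onto plants of two to eighteen cm. Plants stay in the greenhouse twelve to sixteen days and are then rated visually relative to controls.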

[4] = test system: blackgrass; assay: Test C preemergence/postemergence greenhouse plant response rating 0 to 100; assay type: in vivo, Alopecurus myosuroides; conditions: POSTEMERGENCE; for Plant response rating, Blackgrass: 0 to 100 scale
Outline: as §1

[5] = test system: barley; assay: Test B preemergence/postemergence greenhouse plant response rating 0 to 10; assay type: in vivo, Hordeum vulgare; conditions: 0 to 10 scale
Outline: as §2

[6] = test system: bedstraw; assay: as above; assay type: in vivo, Galium aparine; conditions: 0 to 10 scale
Outline: as §2

[7] = test system: cocklebur; assay: as above; assay type: in vivo, Xanthium pensylvanicum; conditions: 0 to 10 scale
Outline: as §2

[8] = test system: rape; assay: Test C preemergence/postemergence greenhouse plant response rating 0 to 100; assay type: in vivo, Brassica napus; conditions: POSTEMERGENCE; for Plant response rating, Rape: 0 to 100 scale
Outline: as §1

[9] = test system: giant foxtail; assay: as above; assay type: in vivo, Setaria faberii; conditions: POSTEMERGENCE; for Plant response rating, Giant foxtail: 0 to 100 scale
Outline: as §1

[10] = test system: lambsquarters; assay: as above; assay type: in vivo, Chenopodium album; conditions: POSTEMERGENCE; for Plant response rating Lambsquarters: 0 to 100 scale
Outline: as §1

[11] = test system: barnyardgrass; assay: Test C flood test plant response rating 0 to 100; assay type: in vivo, Echinochloa crus-galli; conditions: for Plant response rating, Barnyardgrass: flood test species listed under POSTEMERGENCE, 0 to 100 scale
Outline: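 Compounds in non-phytotoxic solvent applied preemergence to sandy loam one day after planting, postemergence at the 1–4 leaf stage, or to ~2.5 cm floodwater over silt loam.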

[12] = test system: corn; assay: Test C preemergence/postemergence greenhouse plant response rating 0 to 100; assay type: in vivo, Zea mays; conditions: POSTEMERGENCE; for Plant response rating, Corn: 0 to 100 scale
Outline: as §1

[13] = test system: cheatgrass; assay: Test B preemergence/postemergence greenhouse plant response rating 0 to 10; assay type: in vivo, Bromus secalinus; conditions: 0 to 10 scale
Outline: as §2

[14] = test system: duck salad; assay: Test C flood test plant response rating 0 to 100; assay type: in vivo, Heteranthera limosa; conditions: for Plant response rating Duck salad: flood test species listed under POSTEMERGENCE, 0 to 100 scale
Outline: as §1

[15] = test system: rice; assay: Test B preemergence/postemergence greenhouse plant response rating 0 to 10; assay type: in vivo, Oryza sativa; conditions: 0 to 10 scale
Outline: as §2

[16] = test system: blackgrass; assay: as above; assay type: in vivo, Alopecurus myosuroides; conditions: 0 to 10 scale
Outline: as §2

[17] = test system: cotton; assay: as above; assay type: in vivo, Gossypium hirsutum; conditions: 0 to 10 scale
Outline: as §2

[18] = test system: wheat; assay: Test C preemergence/postemergence greenhouse plant response rating 0 to 100; assay type: in vivo, Triticum aestivum; conditions: POSTEMERGENCE; for Plant response rating, Wheat: 0 to 100 scale
Outline: as §1

[19] = POSTEMERGENCE section, flood test, Rate 4 g/ha
[20] = Rate 16 g/ha, under POSTEMERGENCE head (flood test species)

COC(=O)c1cc(-c2nn3c(c2Cl)CCCC3)c(F)cc1Cl [Compound 43]
Plant response rating Ryegrass ([1]; 62 g/ha): 50 | Plant response rating Ryegrass ([1]; 250 g/ha): 85 | Plant response rating (0 to 100), Ryegrass ([1]; Rate 4 g/ha): 30 | Plant response rating (0 to 100), Ryegrass ([1]; Rate 16 g/ha): 40 | Plant response rating, Sugar beet ([2]; 62 g/ha): 60 | Plant response rating, Sugar beet ([2]; 250 g/ha): 80 | Plant response rating (0 to 100), Sugar beet ([2]; Rate 4 g/ha): 30 | Plant response rating (0 to 100), Sugar beet ([2]; Rate 16 g/ha): 40 | Plant response rating, Wild buckwheat ([3]; POSTEMERGENCE, Rate 50 g/ha): 10 | Plant response rating, Wild buckwheat ([3]; PREEMERGENCE, Rate 50 g/ha): 8 | Plant response rating, Wild buckwheat ([3]; Rate 200 g/ha, POSTEMERGENCE): 10 | Plant response rating, Wild buckwheat ([3]; Rate 200 g/ha, PREEMERGENCE): 10 | Plant response rating, Blackgrass ([4]; 62 g/ha): 60 | Plant response rating, Blackgrass ([4]; 250 g/ha): 90 | Plant response rating (0 to 100), Blackgrass ([4]; Rate 4 g/ha): 20 | Plant response rating (0 to 100), Blackgrass ([4]; Rate 16 g/ha): 30 | Plant response rating, Barley ([5]; POSTEMERGENCE, Rate 50 g/ha): 3 | Plant response rating, Barley ([5]; POSTEMERGENCE, Rate 200 g/ha): 3 | Plant response rating, Barley ([5]; PREEMERGENCE, Rate 50 g/ha): 0 | Plant response rating, Barley ([5]; Rate 200 g/ha, PREEMERGENCE): 0 | Plant response rating, Bedstraw ([6]; POSTEMERGENCE, Rate 50 g/ha): 10 | Plant response rating, Bedstraw ([6]; POSTEMERGENCE, Rate 200 g/ha): 10 | Plant response rating, Bedstraw ([6]; PREEMERGENCE, Rate 50 g/ha): 0 | Plant response rating, Bedstraw ([6]; Rate 200 g/ha, PREEMERGENCE): 9 | Plant response rating, Cocklebur ([7]; POSTEMERGENCE, Rate 50 g/ha): 8 | Plant response rating, Cocklebur ([7]; POSTEMERGENCE, Rate 200 g/ha): 10 | Plant response rating, Cocklebur ([7]; PREEMERGENCE, Rate 50 g/ha): 0 | Plant response rating, Cocklebur ([7]; Rate 200 g/ha, PREEMERGENCE): 0 | Plant response rating, Rape ([8]; 62 g/ha): 100 | Plant response rating, Rape ([8]; 250 g/ha): 100 | Plant response rating (0 to 100), Rape ([8]; Rate 4 g/ha): 80 | Plant response rating (0 to 100), Rape ([8]; Rate 16 g/ha): 100 | Plant response rating, Giant foxtail ([9]; 62 g/ha): 50 | Plant response rating, Giant foxtail ([9]; 250 g/ha): 85 | Plant response rating (0 to 100), Giant foxtail ([9]; Rate 4 g/ha): 40 | Plant response rating (0 to 100), Giant foxtail ([9]; Rate 16 g/ha): 50 | Plant response rating Lambsquarters ([10]; 62 g/ha): 100 | Plant response rating Lambsquarters ([10]; 250 g/ha): 100 | Plant response rating (0 to 100), Lambsquarters ([10]; Rate 4 g/ha): 90 | Plant response rating (0 to 100), Lambsquarters ([10]; Rate 16 g/ha): 100 | Plant response rating (0 to 100), Barnyardgrass [11, 19]: 45 | Plant response rating (0 to 100), Barnyardgrass [11, 20]: 95 | Plant response rating, Barnyardgrass ([11]; 62 g/ha): 100 | Plant response rating, Barnyardgrass ([11]; 250 g/ha): 100 | Plant response rating, Corn ([12]; 62 g/ha): 90 | Plant response rating, Corn ([12]; 250 g/ha): 90 | Plant response rating (0 to 100), Corn ([12]; Rate 4 g/ha): 20 | Plant response rating (0 to 100), Corn ([12]; Rate 16 g/ha): 50 | Plant response rating, Cheatgrass ([13]; POSTEMERGENCE, Rate 50 g/ha): 6 | Plant response rating, Cheatgrass ([13]; POSTEMERGENCE, Rate 200 g/ha): 9 | Plant response rating, Cheatgrass ([13]; PREEMERGENCE, Rate 50 g/ha): 2 | Plant response rating, Cheatgrass ([13]; Rate 200 g/ha, PREEMERGENCE): 3 | Plant response rating (0 to 100), Duck salad [14, 19]: 0 | Plant response rating (0 to 100), Duck salad [14, 20]: 0 | Plant response rating Duck salad ([14]; 62 g/ha): 25 | Plant response rating Duck salad ([14]; 250 g/ha): 45 | Plant response rating, Rice ([15]; POSTEMERGENCE, Rate 50 g/ha): 7 | Plant response rating, Rice ([15]; PREEMERGENCE, Rate 50 g/ha): 1 | Plant response rating, Rice ([15]; Rate 200 g/ha, POSTEMERGENCE): 9 | Plant response rating, Rice ([15]; Rate 200 g/ha, PREEMERGENCE): 2 | Plant response rating, Blackgrass ([16]; POSTEMERGENCE, Rate 50 g/ha): 7 | Plant response rating, Blackgrass ([16]; POSTEMERGENCE, Rate 200 g/ha): 8 | Plant response rating, Blackgrass ([16]; PREEMERGENCE, Rate 50 g/ha): 2 | Plant response rating, Blackgrass ([16]; Rate 200 g/ha, PREEMERGENCE): 5 | Plant response rating, Cotton ([17]; POSTEMERGENCE, Rate 50 g/ha): 10 | Plant response rating, Cotton ([17]; POSTEMERGENCE, Rate 200 g/ha): 10 | Plant response rating, Cotton ([17]; PREEMERGENCE, Rate 50 g/ha): 0 | Plant response rating, Cotton ([17]; Rate 200 g/ha, PREEMERGENCE): 1 | Plant response rating, Wheat ([18]; 62 g/ha): 50 | Plant response rating, Wheat ([18]; 250 g/ha): 60 | Plant response rating (0 to 100), Wheat ([18]; Rate 4 g/ha): 20 | Plant response rating (0 to 100), Wheat ([18]; Rate 16 g/ha): 40
